In patent US12649751B2 (Arcus Biosciences, Inc., priority 2022, dated 2026):

Each compound was assayed against HPK1 (Homo sapiens, UniProt Q92918) (assay: HPK1 Biochemical Assay (ADP-Glo luminescence; low ATP 10 μM or high ATP 200 μM)). Conditions: 2 nM HPK1, 10 μM ATP; read-out: Biochemical Potency (low ATP).
Experimental: Dose-response assays were performed in Corning® Low Volume 384-well assay plates containing 100 nL of 22 serial 2-fold compound dilutions. Wells containing DMSO alone were used as negative control. A kinase mixture (5 μL) containing 2 nM HPK1 (or 5 nM for high ATP assay) in assay buffer (50 mM Hepes pH 7.4, 10 mM MgCl2, 0.01% Brij-15, 0.01% bovine serum albumin, and 1 mM dithiothreitol) was added to the assay plates and incubated at 25° C. for 1 hour. Wells without HPK1 were used as positive control. A […] of 10 μM ATP (or 200 μM for high ATP) and 0.2 μg/μL […] was then added to the wells, resulting in a 10 μL total reaction volume. Following incubation of the assay plates at 25° C. for 1 hour, 10 μL of ADP-Glo reagent was added to the wells and the plates were incubated at 25° C. for a further 40 minutes (or 1 hour for high ATP assay). Finally, 20 μL of Kinase Detection Reagent was added, and the plates were incubated for another 30 minutes at 25° C. An Envision plate reader was then used to detect the luminescence signals. IC50 values were determined by fitting the data to a standard 4-parameter logistic equation. The results are summarized in the Biochemical Potency columns of Tables 4 and 5 below (Biochemical Potency (high ATP); Biochemical Potency (low ATP)).

Chain of HPK1 (Q92918 whole entry, species assumed): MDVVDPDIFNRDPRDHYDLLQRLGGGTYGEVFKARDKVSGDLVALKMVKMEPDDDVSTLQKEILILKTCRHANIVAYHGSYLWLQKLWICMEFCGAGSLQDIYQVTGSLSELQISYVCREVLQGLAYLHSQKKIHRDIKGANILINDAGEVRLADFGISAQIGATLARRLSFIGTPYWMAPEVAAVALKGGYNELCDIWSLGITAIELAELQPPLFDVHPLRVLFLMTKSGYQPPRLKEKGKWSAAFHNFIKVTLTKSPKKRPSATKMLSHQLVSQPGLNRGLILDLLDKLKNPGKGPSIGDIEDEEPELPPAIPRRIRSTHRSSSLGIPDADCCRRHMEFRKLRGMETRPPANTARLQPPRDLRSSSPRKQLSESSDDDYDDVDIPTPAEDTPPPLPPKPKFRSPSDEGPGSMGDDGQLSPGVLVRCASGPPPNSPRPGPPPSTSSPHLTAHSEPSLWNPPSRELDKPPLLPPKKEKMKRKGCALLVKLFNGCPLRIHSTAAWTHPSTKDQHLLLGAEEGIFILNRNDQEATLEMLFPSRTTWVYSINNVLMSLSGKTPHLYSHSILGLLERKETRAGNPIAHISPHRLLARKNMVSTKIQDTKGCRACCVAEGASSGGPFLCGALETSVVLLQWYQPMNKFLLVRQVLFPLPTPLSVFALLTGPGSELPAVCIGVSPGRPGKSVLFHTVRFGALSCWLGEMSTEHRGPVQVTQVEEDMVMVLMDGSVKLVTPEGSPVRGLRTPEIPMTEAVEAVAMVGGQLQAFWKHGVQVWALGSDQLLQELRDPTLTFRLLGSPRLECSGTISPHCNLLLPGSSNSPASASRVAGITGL

SMILES | IC50
CN1C[C@@H]2C[C@H]1CN2c1cncc(Nc2cc3nc(-c4cccc(N5CCCC5=O)c4)sc3cn2)n1 [Example 143, 1-{3-[6-({6-[(1S,4S)-5-Methyl-2,5-diazabicyclo[2.2.1]heptan-2-yl]pyrazin-2-yl}amino)-[1,3]thiazolo[5,4-c]pyridin-2-yl]phenyl}pyrrolidin-2-one] | < 100 nM
CN1C[C@@H]2C[C@H]1CN2c1cncc(Nc2cc3nc(-c4ccncc4)sc3cn2)n1 [Example 146, 6-[(1S,4S)-5-Methyl-2,5-diazabicyclo[2.2.1]heptan-2-yl]-N-[2-(pyridin-4-yl)-[1,3]thiazolo[5,4-c]pyridin-6-yl]pyrazin-2-amine] | < 100 nM
CN1C[C@@H]2C[C@H]1CN2c1cncc(Nc2cc3nc(-c4cccc(C(=O)N5CCCC5)c4)sc3cn2)n1 [Example 147, 6-[(1S,4S)-5-Methyl-2,5-diazabicyclo[2.2.1]heptan-2-yl]-N-{2-[3-(pyrrolidine-1-carbonyl)phenyl]-[1,3]thiazolo[5,4-c]pyridin-6-yl}pyrazin-2-amine] | < 100 nM
Cc1cccnc1-c1nc2cc(Nc3ccnc(N4C[C@@H]5C[C@H]4CN5)n3)ncc2s1 [Example 149, 2-[(1S,4S)-2,5-Diazabicyclo[2.2.1]heptan-2-yl]-N-[2-(3-methylpyridin-2-yl)-[1,3]thiazolo[5,4-c]pyridin-6-yl]pyrimidin-4-amine] | < 100 nM
Cc1cccnc1-c1nc2cc(Nc3cncc(N4C[C@@H](N)C[C@H]4CO)n3)ncc2s1 [Example 150, [(2S,4S)-4-Amino-1-(6-{[2-(3-methylpyridin-2-yl)-[1,3]thiazolo[5,4-c]pyridin-6-yl]amino}pyrazin-2-yl)pyrrolidin-2-yl]methanol] | < 100 nM
CN1C[C@@H]2C[C@H]1CN2c1cncc(Nc2cc3nc(-c4ccnc(C(C)(C)O)c4)sc3cn2)n1 [Example 151, 2-{4-[6-({6-[(1S,4S)-5-Methyl-2,5-diazabicyclo[2.2.1]heptan-2-yl]pyrazin-2-yl}amino)-[1,3]thiazolo[5,4-c]pyridin-2-yl]pyridin-2-yl}propan-2-ol] | < 100 nM
CN1C[C@@H]2C[C@H]1CN2c1cncc(Nc2cc3nc(-c4cccc(C(C)(C)O)c4)sc3cn2)n1 [Example 152, 2-{3-[6-({6-[(1S,4S)-5-Methyl-2,5-diazabicyclo[2.2.1]heptan-2-yl]pyrazin-2-yl}amino)-[1,3]thiazolo[5,4-c]pyridin-2-yl]phenyl}propan-2-ol] | < 100 nM
Cc1cccnc1-c1nc2cc(Nc3cnc(C)c(N4C[C@@H]5C[C@H]4CN5C)n3)ncc2s1 [Example 154, 5-Methyl-6-[(1S,4S)-5-methyl-2,5-diazabicyclo[2.2.1]heptan-2-yl]-N-[2-(3-methylpyridin-2-yl)-[1,3]thiazolo[5,4-c]pyridin-6-yl]pyrazin-2-amine] | < 100 nM
CN1C[C@@H]2C[C@H]1CN2c1cncc(Nc2cc3nc(-c4ncco4)sc3cn2)n1 [Example 156, 6-[(1S,4S)-5-Methyl-2,5-diazabicyclo[2.2.1]heptan-2-yl]-N-[2-(1,3-oxazol-2-yl)-[1,3]thiazolo[5,4-c]pyridin-6-yl]pyrazin-2-amine] | < 100 nM
CN1C[C@@H]2C[C@H]1CN2c1nccc(Nc2cc3nc(-c4ncco4)sc3cn2)n1 [Example 157, 2-[(1S,4S)-5-Methyl-2,5-diazabicyclo[2.2.1]heptan-2-yl]-N-[2-(1,3-oxazol-2-yl)-[1,3]thiazolo[5,4-c]pyridin-6-yl]pyrimidin-4-amine] | < 100 nM
Cc1cccnc1-c1nc2cc(Nc3ccnc(N4C[C@@H]5C[C@H]4CN5C)n3)ncc2s1 [Example 158, 2-[(1S,4S)-5-Methyl-2,5-diazabicyclo[2.2.1]heptan-2-yl]-N-[2-(3-methylpyridin-2-yl)-[1,3]thiazolo[5,4-c]pyridin-6-yl]pyrimidin-4-amine] | < 100 nM
Cc1cc(Nc2cc3nc(-c4ncccc4C)sc3cn2)nc(O[C@H]2CCCNC2)c1 [Example 161, 4-Methyl-N-[2-(3-methylpyridin-2-yl)-[1,3]thiazolo[5,4-c]pyridin-6-yl]-6-[(3S)-piperidin-3-yloxy]pyridin-2-amine] | < 100 nM
Cc1ccc(Nc2cc3nc(-c4ncccc4C)sc3cn2)nc1OC1CCNC1 (centres unmarked) [Example 162, 5-Methyl-N-[2-(3-methylpyridin-2-yl)-[1,3]thiazolo[5,4-c]pyridin-6-yl]-6-(pyrrolidin-3-yloxy)pyridin-2-amine] | < 100 nM
Cc1cc(Nc2cc3nc(-c4cccc(C)n4)sc3cn2)nc(O[C@H]2CCNC2)c1 [Example 163, 4-Methyl-N-[2-(6-methylpyridin-2-yl)-[1,3]thiazolo[5,4-c]pyridin-6-yl]-6-[(3S)-pyrrolidin-3-yloxy]pyridin-2-amine] | < 100 nM
Cc1cc(Nc2cc3nc(-c4ccncc4)sc3cn2)nc(O[C@H]2CCNC2)c1 [Example 166, 4-Methyl-N-[2-(pyridin-4-yl)-[1,3]thiazolo[5,4-c]pyridin-6-yl]-6-[(3S)-pyrrolidin-3-yloxy]pyridin-2-amine] | < 100 nM
Cc1cc(Nc2cc3nc(-c4ccnc(C)c4)sc3cn2)nc(O[C@H]2CCNC2)c1 [Example 168, 4-Methyl-N-[2-(2-methylpyridin-4-yl)-[1,3]thiazolo[5,4-c]pyridin-6-yl]-6-[(3S)-pyrrolidin-3-yloxy]pyridin-2-amine] | < 100 nM
Cc1cc(Nc2cc3nc(-c4ccncc4C)sc3cn2)nc(O[C@H]2CCNC2)c1 [Example 169, 4-Methyl-N-[2-(3-methylpyridin-4-yl)-[1,3]thiazolo[5,4-c]pyridin-6-yl]-6-[(3S)-pyrrolidin-3-yloxy]pyridin-2-amine] | < 100 nM
Cc1cc(Nc2cc3nc(-c4ccnc(N)c4)sc3cn2)nc(O[C@H]2CCNC2)c1 [Example 170, N-[2-(2-Aminopyridin-4-yl)-[1,3]thiazolo[5,4-c]pyridin-6-yl]-4-methyl-6-[(3S)-pyrrolidin-3-yloxy]pyridin-2-amine] | < 100 nM
Cc1cc(Nc2cc3nc(-c4ccnc(C)c4)sc3cn2)nc(OC2CNCC2(F)F)c1 (centres unmarked) [Example 171, 6-[(4,4-Difluoropyrrolidin-3-yl)oxy]-4-methyl-N-[2-(2-methylpyridin-4-yl)-[1,3]thiazolo[5,4-c]pyridin-6-yl]pyridin-2-amine] | < 100 nM

Results, then the compound that gave them:

IC50 | SMILES
< 100 nM | Cc1ccncc1-c1nc2cc(Nc3ccc(C)c(O[C@H]4CCNC4)n3)ncc2s1 [Example 173, 5-Methyl-N-[2-(4-methylpyridin-3-yl)-[1,3]thiazolo[5,4-c]pyridin-6-yl]-6-[(3S)-pyrrolidin-3-yloxy]pyridin-2-amine]
< 100 nM | Cc1cc(Nc2cc3nc(-c4ncccc4C)sc3cn2)nc(OC2CCNCC2)c1 [Example 174, 4-Methyl-N-[2-(3-methylpyridin-2-yl)-[1,3]thiazolo[5,4-c]pyridin-6-yl]-6-(piperidin-4-yloxy)pyridin-2-amine]
< 100 nM | Cc1cc(Nc2cc3nc(-c4cc(C#N)ccc4C)sc3cn2)nc(O[C@H]2CCNC2)c1 [Example 176, 4-Methyl-3-(6-{[4-methyl-6-((3S)-pyrrolidin-3-yloxy)pyridin-2-yl]amino}-[1,3]thiazolo[5,4-c]pyridin-2-yl)benzonitrile]
< 100 nM | Cc1cc(Nc2cc3nc(-c4cccnc4C)sc3cn2)nc(O[C@H]2CCNC2)c1 [Example 179, 4-Methyl-N-[2-(2-methylpyridin-3-yl)-[1,3]thiazolo[5,4-c]pyridin-6-yl]-6-[(3S)-pyrrolidin-3-yloxy]pyridin-2-amine]
< 100 nM | Cc1cc(Nc2cc3nc(-c4ccnn4C)sc3cn2)nc(O[C@H]2CCNC2)c1 [Example 181, 4-Methyl-N-[2-(1-methyl-1H-pyrazol-5-yl)-[1,3]thiazolo[5,4-c]pyridin-6-yl]-6-[(3S)-pyrrolidin-3-yloxy]pyridin-2-amine]
< 100 nM | Cc1cc(Nc2cc3nc(-c4nccn4C)sc3cn2)nc(O[C@H]2CCNC2)c1 [Example 183, 4-Methyl-N-[2-(1-methyl-1H-imidazol-2-yl)-[1,3]thiazolo[5,4-c]pyridin-6-yl]-6-[(3S)-pyrrolidin-3-yloxy]pyridin-2-amine]
< 100 nM | Cc1cc(Nc2cc3nc(C4CCOCC4)sc3cn2)nc(O[C@H]2CCNC2)c1 [Example 184, 4-Methyl-N-[2-(oxan-4-yl)-[1,3]thiazolo[5,4-c]pyridin-6-yl]-6-[(3S)-pyrrolidin-3-yloxy]pyridin-2-amine]
100 to 1000 nM | Cc1cc(Nc2cc3nc(-c4cc5n(n4)CC(=O)N(C(C)C)CC5)sc3cn2)nc(O[C@H]2CCNC2)c1 [Example 185, 2-(6-{[4-Methyl-6-((3S)-pyrrolidin-3-yloxy)pyridin-2-yl]amino}-[1,3]thiazolo[5,4-c]pyridin-2-yl)-6-(propan-2-yl)-4H,5H,6H,7H,8H-pyrazolo[1,5-d][1,4]diazepin-7-one]
< 100 nM | Cc1cc(Nc2cc3nc(-c4ccc(S(C)(=O)=O)cc4)sc3cn2)nc(O[C@H]2CCNC2)c1 [Example 186, N-[2-(4-Methanesulfonylphenyl)-[1,3]thiazolo[5,4-c]pyridin-6-yl]-4-methyl-6-[(3S)-pyrrolidin-3-yloxy]pyridin-2-amine]
< 100 nM | Cc1cc(Nc2cc3nc(-c4ccc(C#N)cc4)sc3cn2)nc(O[C@H]2CCNC2)c1 [Example 187, 4-(6-{[4-Methyl-6-(pyrrolidin-3-yloxy)pyridin-2-yl]amino}-[1,3]thiazolo[5,4-c]pyridin-2-yl)benzonitrile]
